Legend:
[1] = system: meal-fed Charles River rats; assay: Food consumption and serum parameters in meal-fed rats (in vivo fatty acid synthesis experiments); design: species or system Charles River rat; details: sodium salt, mean ± SE
Experimental: In the following examples, female rats (Charles River CD strain, 180-200 g) were housed individually in wire bottom cages in a temperature (22°) and light (12 hr light and 12 hr dark) regulated room. They had free access to Purina Rodent Chow and water.
Faster enzymatic procedure for serum triglycerides, Clinical Chemistry, 21: 1983-1985], cholesterol, [C. C. Allain, L. Poon, S. G. Chan, W. Richmond and P. Fu (1974). Enzymatic determination of total serum cholesterol, Clinical Chemistry, 20: 470-475] and glucose, [R. Konig, H. Dauwalder and R. Richterich (1971). Vergleichende Bestimmunogen der Uringlucosekonzentration mit der Polarimetrie und einer enzymatischen Methode (Hexokinase/Glucose-6-Phosphat-Dehydrogenase), Schweiz. Med. Wschr., 101: 860-866] by enzymatic procedures.

[2] = system: rats in the five day two hour meal model; assay: Five day two hour meal model; assay type: in vivo, rat; details: sodium salt, mean ± SE
Experimental: A five day two hour meal model was developed to evaluate the effects of lipase inhibitors in vivo. [^14 C]-triolein and [^3 H]cholesterol were included in the 10% corn oil meal on days one and five. Test compound was administered as a dietary admix. Compound was first mixed into the fat component of the diet before the dry components were added. Food consumption and body weight gain were determined. Feces were collected from day two to day four. Rats were killed on day five and the small intestine and contents were removed for analysis.

[3] = system: female Charles River rats; assay: Chronic 31 day dietary admix experiment; assay type: in vivo, Charles River rat; details: 31 days; for Body Weight Gain / Body Weight final / Fat Absorption / Food Consumption / Food Efficiency / Serum Cholesterol / Serum Free Fatty Acids / Serum Glucose / Serum IRI (immunoreactive insulin) / Serum Triglycerides: sodium salt, mean ± SE
Excerpt: Faster enzymatic procedure for serum triglycerides, Clinical Chemistry, 21: 1983-1985], cholesterol, [C. C. Allain, L. Poon, S. G. Chan, W. Richmond and P. Fu (1974). Enzymatic determination of total serum cholesterol, Clinical Chemistry, 20: 470-475] and glucose, [R. Konig, H. Dauwalder and R. Richterich (1971). Vergleichende Bestimmungen der Uringlucosekonzentration mit der Polarimetrie und einer enzymatischen Methode (Hexokinase/Glucose-6-Phosphat-Dehydrogenase), Schweiz. Med. Wschr., 101: 860-866], by enzymatic procedures and free fatty acids, [C. Dalton and C. Kowalski (1967). Automated colorimetric determination of free fatty acids in biologic fluids, Clinical Chemistry, 13: 744-751], by a Colorimetric procedure. Serum immunoreactive insulins were determined by radioimmunoassay, [G. F. Bryce, P. R. Johnson, A. C. Sullivan, J. S. Stern (1977). Insulin and glucagon: Plasma levels and pancreatic release in the gentically obese Zucker rat, Hormone and Metabolic Research, 9: 366-370].
FIG. 2 sets forth body weight gain values of rats matched for initial body weight and pair fed 10% corn oil diet without dinitrodescarboxylasalocid and three groups of pair fed rats receiving 60, 120 and 240 mg/kg of dinitrodescarboxylasalocid as dietary admixes for 31 days respectively. […] Tables 12 and 13 describe the effects of dinitrodescarboxylasalocid (150 mg/kg b.i.d. by oral intubation) in genetically obese and lean Zucker rats for 21 days.

[4] = target: rat epididyml lipoprotein lipase (Rattus norvegicus, UniProt Q06000); details: read-out: I50 lipoprotein lipase; rat epididyml lipoprotein lipase in vitro
rat epididyml lipoprotein lipase, sequence (Q06000 28-474): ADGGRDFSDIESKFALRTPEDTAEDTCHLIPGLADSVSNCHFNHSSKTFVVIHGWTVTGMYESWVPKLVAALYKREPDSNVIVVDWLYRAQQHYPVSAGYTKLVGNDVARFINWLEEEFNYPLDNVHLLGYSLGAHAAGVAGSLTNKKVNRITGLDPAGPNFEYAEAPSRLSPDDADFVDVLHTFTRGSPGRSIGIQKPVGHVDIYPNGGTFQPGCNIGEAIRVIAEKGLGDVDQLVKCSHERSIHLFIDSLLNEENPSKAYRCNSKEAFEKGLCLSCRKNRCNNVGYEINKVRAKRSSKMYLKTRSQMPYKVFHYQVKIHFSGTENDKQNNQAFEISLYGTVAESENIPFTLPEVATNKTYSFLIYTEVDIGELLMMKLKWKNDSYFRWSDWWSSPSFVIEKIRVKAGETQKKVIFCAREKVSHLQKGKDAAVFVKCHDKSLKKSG
Experimental: Acetone powders of Zucker rat epididyml adipose tissue were the source of lipoprotein lipase and were prepared by the method of Garfinkel and Schotz, [A. S. Garfinkel and M. C. […] The adipose tissue was removed quickly and immediately homogenized in acetone (15 ml per gram of adipose tissue) in a Waring Blender at high speed for one minute, then filtered quickly through a coarse fritted glass funnel. The extract was washed twice with acetone (3 ml per gram of adipose tissue), then washed two more times with anhydrous ethyl ether (3 ml per gram adipose tissue). The powder was dried under vacuum for one hour, weighed and stored desiccated at -70° C. Approximately 0.013 g acetone powder was obtained per gram of epididyml adipose tissue. The lipoprotein lipase was extracted from the acetone powder into 0.05 M NH4 OH-NH4 Cl buffer, pH 8.6. The extracts were prepared by homogenizing the acetone powder in buffer in a TenBroeck glass tissue grinder in ice. The homogenate was centrifuged at 2,000×g for 20 min to remove insoluble material.
Ionophores were added to the above assays as solutions in either water or DMSO.

CC[C@@H](C(=O)[C@@H](C)[C@@H](O)[C@H](C)CCc1c([N+](=O)[O-])cc(C)c(O)c1[N+](=O)[O-])[C@H]1O[C@](CC)([C@H]2CC[C@](O)(CC)[C@H](C)O2)C[C@@H]1C [Dinitrodescarboxylasalocid]
Food Consumption ([1]; 60 mg/kg i.p.): 15.7 ± 0.4 g
Food Consumption ([1]; Experiment 1, 240 mg/kg p.o.): 11.0 ± 0.8 g
Serum Cholesterol ([1]; Experiment 1, 240 mg/kg p.o.): 85 ± 7 mg/100 ml
Serum Glucose ([1]; Experiment 1, 240 mg/kg p.o.): 194 ± 9 mg/100 ml
Serum Triglycerides ([1]; Experiment 1, 240 mg/kg p.o.): 42 ± 5 mg/100 ml
Food Consumption ([1]; Experiment 2, 60 mg/kg p.o.): 8.8 ± 1.0 g
Serum Cholesterol ([1]; Experiment 2, 60 mg/kg p.o.): 84 ± 3 mg/100 ml
Serum Glucose ([1]; Experiment 2, 60 mg/kg p.o.): 165 ± 6 mg/100 ml
Serum Triglycerides ([1]; Experiment 2, 60 mg/kg p.o.): 40 ± 4 mg/100 ml
Food Consumption ([1]; Experiment 2, 120 mg/kg p.o.): 10.7 ± 1.0 g
Serum Cholesterol ([1]; Experiment 2, 120 mg/kg p.o.): 82 ± 6 mg/100 ml
Serum Glucose ([1]; Experiment 2, 120 mg/kg p.o.): 168 ± 7 mg/100 ml
Serum Triglycerides ([1]; Experiment 2, 120 mg/kg p.o.): 31 ± 2 mg/100 ml
Food Consumption ([1]; Experiment 2, 240 mg/kg p.o.): 9.4 ± 1.1 g
Serum Cholesterol ([1]; Experiment 2, 240 mg/kg p.o.): 76 ± 7 mg/100 ml
Serum Glucose ([1]; Experiment 2, 240 mg/kg p.o.): 183 mg/100 ml
Serum Triglycerides ([1]; Experiment 2, 240 mg/kg p.o.): 31 ± 5 mg/100 ml
3H-Cholesterol in Feces ([2]; 120 mg/kg dietary admix): 28.6 ± 3.9 % of ingested
14C in Feces ([2]; 120 mg/kg dietary admix): 2.4 ± 0.7 % of ingested
Body weight gain (BWG) ([2]; 120 mg/kg dietary admix): -1 ± 3 g
Fat Absorption ([2]; 120 mg/kg dietary admix): 95.6 ± 0.5%
Intestinal Cholsterol Esters ([2]; 120 mg/kg): 7.7 ± 1.2 % of 14C-lipid
Intestinal Contents 3H-cholesterol ([2]; 120 mg/kg): 1.7 ± 0.2 % ingested
Intestinal Contents 14C-lipid ([2]; 120 mg/kg): 0.75 ± 0.10 % ingested
Intestinal Free Fatty Acids ([2]; 120 mg/kg): 61.9 ± 1.3 % of 14C-lipid
Intestinal Mono- and Diglyceride ([2]; 120 mg/kg): 15.3 ± 1.3 % of 14C-lipid
Intestinal Triglyceride ([2]; 120 mg/kg): 9.1 ± 0.8 % of 14C-lipid
3H-Cholesterol in Feces ([2]; 240 mg/kg dietary admix): 34.1 ± 2.6 % of ingested
14C in Feces ([2]; 240 mg/kg dietary admix): 4.4 ± 0.8 % of ingested
Body weight gain (BWG) ([2]; 240 mg/kg dietary admix): -3 ± 2 g
Fat Absorption ([2]; 240 mg/kg dietary admix): 92.8 ± 0.7%
Food Consumption ([2]; 240 mg/kg dietary admix): 7.2 ± 0.5 g/day
Intestinal Cholsterol Esters ([2]; 240 mg/kg): 7.1 ± 0.8 % of 14C-lipid
Intestinal Contents 3H-cholesterol ([2]; 240 mg/kg): 1.2 ± 0.2 % ingested
Intestinal Contents 14C-lipid ([2]; 240 mg/kg): 0.66 ± 0.13 % ingested
Intestinal Free Fatty Acids ([2]; 240 mg/kg): 59.6 ± 2.6 % of 14C-lipid
Intestinal Mono- and Diglyceride ([2]; 240 mg/kg): 15.9 ± 0.9 % of 14C-lipid
Intestinal Triglyceride ([2]; 240 mg/kg): 10.3 ± 0.7 % of 14C-lipid
Body Weight Gain ([3]; 60 mg/kg dietary admix): 64 ± 6 g
Body Weight final ([3]; 60 mg/kg dietary admix): 255 ± 8 g
Fat Absorption ([3]; 60 mg/kg dietary admix): 95.6 ± 0.6%
Food Consumption ([3]; 60 mg/kg dietary admix): 17.4 ± 0.6 g/day
Food Efficiency ([3]; 60 mg/kg dietary admix): 0.115 ± 0.010 g gained/g consumed
Serum Cholesterol ([3]; 60 mg/kg): 106 ± 6 mg/100 ml
Serum Free Fatty Acids ([3]; 60 mg/kg): 469 ± 46 μeq/l
Serum Glucose ([3]; 60 mg/kg): 173 ± 5 mg/100 ml
Serum IRI (immunoreactive insulin) ([3]; 60 mg/kg): 1.8 ± 0.2 ng/mL
Serum Triglycerides ([3]; 60 mg/kg): 73 ± 3 mg/100 ml
Body Weight Gain ([3]; 120 mg/kg dietary admix): 66 ± 8 g
Body Weight final ([3]; 120 mg/kg dietary admix): 256 ± 10 g
Fat Absorption ([3]; 120 mg/kg dietary admix): 95.8 ± 0.6%
Food Consumption ([3]; 120 mg/kg dietary admix): 19.0 ± 0.5 g/day
Food Efficiency ([3]; 120 mg/kg dietary admix): 0.109 ± 0.014 g gained/g consumed
Serum Cholesterol ([3]; 120 mg/kg): 88 ± 6 mg/100 ml
Serum Free Fatty Acids ([3]; 120 mg/kg): 425 ± 45 μeq/l
Serum Glucose ([3]; 120 mg/kg): 164 ± 5 mg/100 ml
Serum IRI (immunoreactive insulin) ([3]; 120 mg/kg): 2.0 ± 0.2 ng/mL
Serum Triglycerides ([3]; 120 mg/kg): 64 ± 5 mg/100 ml
Body Weight Gain ([3]; 240 mg/kg dietary admix): 51 ± 3 g
Body Weight final ([3]; 240 mg/kg dietary admix): 246 ± 4 g
Fat Absorption ([3]; 240 mg/kg dietary admix): 88.1 ± 1.7%
Food Consumption ([3]; 240 mg/kg dietary admix): 17.6 ± 0.5 g/day
Food Efficiency ([3]; 240 mg/kg dietary admix): 0.083 ± 0.011 g gained/g consumed
Serum Cholesterol ([3]; 240 mg/kg): 155 ± 9 mg/100 ml
Serum Free Fatty Acids ([3]; 240 mg/kg): 423 ± 61 μeq/l
Serum Glucose ([3]; 240 mg/kg): 155 ± 8 mg/100 ml
Serum IRI (immunoreactive insulin) ([3]; 240 mg/kg): 1.7 ± 0.2 ng/mL
Serum Triglycerides ([3]; 240 mg/kg): 51 ± 4 mg/100 ml
Body weight gain compared to controls and the respective pair-fed groups (FIG. 2) ([3]; 60, 120 and 240 mg/kg dietary admix): reduced significantly only at the 240 mg/kg dose
IC50 [4]: 270 µM

Reference: patent US4218443A, “Polyether ionophores as antiobesity and hypotriglyceridemic agents” (Hoffmann-La Roche Inc., priority 1979, dated 1980)
